From patent publication US20030124159A1, “Enhancing epidermal barrier development in skin” (Unilever Home & Personal Care USA, Division of Conopco, Inc, priority 2001, published 2003)
Values belong to the compound of their own block, whether it stands above or below them.

Key:
human LXR = target: T1, human LXR (Homo sapiens, UniProt Q13133); assay: Reporter gene assay for activation of LXRα in transfected cos-7 cells; assay type: cell-based
T1 construct: expressed in transfected cells; host or cells: cos-7 cells (ECACC No. 87021302)
T1 sequence (Q13133 1-447): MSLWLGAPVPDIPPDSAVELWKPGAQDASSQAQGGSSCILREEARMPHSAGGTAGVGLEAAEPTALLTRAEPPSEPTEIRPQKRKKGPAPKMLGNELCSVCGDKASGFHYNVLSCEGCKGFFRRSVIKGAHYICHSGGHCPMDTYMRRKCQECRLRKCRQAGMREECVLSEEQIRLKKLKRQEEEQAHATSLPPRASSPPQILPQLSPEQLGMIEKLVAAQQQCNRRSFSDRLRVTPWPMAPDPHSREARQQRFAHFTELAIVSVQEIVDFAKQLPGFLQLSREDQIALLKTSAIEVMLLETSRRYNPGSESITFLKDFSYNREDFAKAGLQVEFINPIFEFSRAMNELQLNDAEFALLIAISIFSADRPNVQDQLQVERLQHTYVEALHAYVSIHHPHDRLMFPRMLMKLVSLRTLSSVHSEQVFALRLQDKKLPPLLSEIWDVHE
T1 sequence (P19793 1-462 partner): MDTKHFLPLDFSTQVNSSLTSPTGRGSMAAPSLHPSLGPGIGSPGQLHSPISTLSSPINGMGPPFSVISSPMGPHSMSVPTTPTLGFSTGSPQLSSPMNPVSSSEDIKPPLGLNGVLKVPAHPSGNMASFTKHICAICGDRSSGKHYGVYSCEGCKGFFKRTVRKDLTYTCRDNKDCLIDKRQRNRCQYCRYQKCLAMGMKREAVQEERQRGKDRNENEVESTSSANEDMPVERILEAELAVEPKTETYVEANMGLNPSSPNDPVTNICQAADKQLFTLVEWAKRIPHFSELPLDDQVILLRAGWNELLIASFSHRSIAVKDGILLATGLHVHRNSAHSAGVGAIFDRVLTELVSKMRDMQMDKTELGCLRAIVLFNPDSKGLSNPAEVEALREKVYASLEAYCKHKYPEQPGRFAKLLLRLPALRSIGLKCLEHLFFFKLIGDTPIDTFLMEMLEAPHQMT
Method: The activation of LXRα has been determined by a reporter gene assay based on that described by Kliewer et al (Nature 358 771-774 1992). Wherein cos-7 cells (ECACC No. 87021302) were seeded in 24-well plates at a density of 5×10^4 cells/well. Cells were grown overnight at 37° C./5% CO2 in DMEM containing 10% FCS, 2mM L-glutamine, […] penicillin and 100 µg/ml streptomycin.
A commerically available vector-pNFκB-Luc (Clontech) was used as the basic reporter plasmid as it contained the firefly luciferase gene downstream of the thymidine kinase promoter element. The NFκB consensus sequence was exised using restriction enzymes Mlu I and Bgl II and replaced with 3 direct repeats of the DNA response element sequence for the LXR nuclear receptor.
The response element was taken from Willy, P. et al (1995)(from a promoter region of the mouse mammary tumour virus), and repeated three times and encorporated restriction enzyme sites for Mlu I and Bgl II at either end to orientate the fragment during cloning (FIG. 5). This long oligonucleotide was synthesised, and an annealing primer designed to allow production of a double-stranded DNA template by Klenow fill-in.
This dsDNA template along with the vector pNFκB-Luc were then cut with both Mlu I and Bgl II restriction enzymes to allow cloning of the insert into this vector. ligation of the insert and vector occurred, followed by heat-shock transformation into a E. coli strain (JM109) followed by selection of recombinants on LB agar+Ampicillin (100 μg/ml). Mini liquid cultures of each colony generated were established and mini-plasmid preparations done (Qiagen protocols followed), furthered by restriction digests to check the size of the recombinant insert.
The pRSV/hRXRα was prepared via the method of Collingwood T N et al. 1997. J Biol Chem. 272: 13060-5. Transformation was performed as described above, and bulk plasmid preparations were performed from 100 ml overnight cultures. The selectable antibiotic for this vector was 100 μg/ml Ampicilin.
Transfection of cells was performed using Lipofectamine (Gibco Brl) as directed by the manufactures. Transfected cells were incubated for 5 h at 37° C./5% CO2 and serum then added to a final concentration of 2%. Cells were then incubated for a further 24 hours in the presence or absence of ligand. After 24 hours cell lysates were prepared and the level of firefly and renilla luciferase determined using the Dual luciferase assay system (Promega) and a MLX microtitre plate luminometer (Dynex).
Cells were washed with transfection media (DMEM) then transiently transfected with 4 plasmids: a LXR-responsive firefly luciferase reporter gene (pLXRE-luc); mammalian expression plasmids (pcDNA3.1/LXR, and pRSV/hRXRα) containing human LXR and RXRα cDNAs respectively and a control plasmid (pRLTK, Promega) which constitutatively expresses the renilla luciferase gene.
Transfected cells were incubated for 5 h at 37°C./5% CO2 and serum then added to a final concentration of 2%. Cells were then incubated for further 24 hours in the presence or absence of ligand. After 24 hours cell lysates were prepared and the level of firefly and renilla luciferase determined using the Dual luciferase assay system (Promega) and a MLX microtitre plate luminometer (Dynex). The level of firefly luciferase (normalised against the renilla luciferase control) provides a measure of reporter gene activity. This in turn reflects the level of LXR activation
The level of firefly luciferase (normalised against the renilla luciferase control) provides a measure of reporter gene activity which in turn reflects the level of LXRα activation.

filaggrin = assay: RNA expression analysis of filaggrin in human epidermal cultures (Integriderm array); assay type: cell-based
Method: Commercially available human epidermal cultures were obtained from Skin Ethic™. The cultures were incubated in DMEM supplemented with guggul sterone (conctri) or vehicle alone (X % ethanol) for X days. Medium was replaced every day.
RNA was then extracted from cultures using the Qaigen RNEasy™ minikit according to manufacturers' instructions. The RNA was than DNAse treated and quantified by measuring OD at 260 & 280 nm with a spectrophotometer.
The level of gene expression was then determined using the Integridenm array from Research Genetics. RNA expression in guggul sterone treated cultures was compared to that in cultures treated with vehicle alone according to manufacturers' instructions broadly detailed below.
To prehybridise, each membrane was placed in a seperate roller bottle with the DNA spotted side facing inwards 5.0 ml MicroHyb (Research Genetics #HYB125.GF) was added to each bottle as well as the blocking agents;
20 ul mastermix was added to each tube containing RNA and oligo dT, and the reaction incubated at […] 42° C. for 90 mins. Bio-Spin 6 columns (Bio-Rad #732-6002) were then used to remove unincorporated nucleotides according to the manufacturer's instructions.
The cDNA was denatured by heating to 99° C. for 3 mins and chilled on ice for 2 mins. Hybridisation was carried out at 42° C. for 16-20 hrs in a rotating oven.
Membranes were washed 4× with ˜30 ml wash 1 solution (2× SSC, 1% SDS) at 50° C. for 20 mins/wash in rotating oven. This was followed by 2 further washes in ˜30 ml wash 2 solution (0.5× SSC, 1% SDS) at 50° C. for 15 mins/wash in a rotating oven.
Images of the membranes were obtained using a phosphorimager (Molecular Dynamics) using a pixel size of 100 u during the scanning. Images were converted to “TIF” files to allow analysis using Pathways™2.01 software (Research Genetics) and spot intensities compared to indicate changes in RNA expression. Each array contains 3 separate spots of filaggrin DNA and the average of all 3 spot intensities was calculated for each array. […]

Structure (SMILES): CC(C)CC[C@@H](O)[C@@H](C)[C@H]1CC[C@H]2[C@@H]3CC=C4C[C@@H](O)CC[C@]4(C)[C@H]3CC[C@]12C [22R-hydroxycholesterol, reference compound]
- Reporter Gene Activity Foloinduction relative to vertical Mean (human LXR; 32 μM, positive control in desmosterol experiment): 4.8
- Reporter Gene Activity Foloinduction relative to vertical Mean (human LXR; 35 μM, positive control in cis-guggal sterone experiment): 6
- Reporter Gene Activity Foloinduction relative to vertical Mean (human LXR; 50 μM, positive control in cis-guggal sterone experiment): 6.59

- Reporter Gene Activity Foloinduction relative to vertical Mean (human LXR; 16 μM, cos-7 cells, 24 hours with ligand, firefly luciferase normalised against renilla): 3.9
- Reporter Gene Activity Foloinduction relative to vertical Mean (human LXR; 32 μM, cos-7 cells, 24 hours with ligand, firefly luciferase normalised against renilla): 8
- Reporter Gene Activity Foloinduction relative to vertical Mean (human LXR; 64 μM, cos-7 cells, 24 hours with ligand, firefly luciferase normalised against renilla): 17.3
Structure (SMILES): C/C=C1\C(=O)C[C@H]2[C@@H]3CCC4=CC(=O)CC[C@]4(C)[C@H]3CC[C@]12C [Cis-guggal Sterone]
- Spot intensity (filaggrin) (filaggrin; human epidermal cultures, average of 3 filaggrin spots, normalised against average intensity of all spots): 2885
- Changes in the expression relative to vehicle (filaggrin) (filaggrin; human epidermal cultures, relative to vehicle): 1.54 (+/−0.17)
- filaggrin mRNA levels (in words) (filaggrin; treatment of epidermal cultures): elevation of filaggrin mRNA levels

Structure (SMILES): CC(C)=CCC[C@@H](C)[C@H]1CC[C@H]2[C@@H]3CC=C4C[C@@H](O)CC[C@]4(C)[C@H]3CC[C@]12C [Desmosterol, cholesta-5,24-dien-3β-ol]
- Reporter Gene Activity Foloinduction relative to vertical Mean (human LXR; 26 μM, cos-7 cells, 24 hours with ligand, firefly luciferase normalised against renilla): 9.27
